Test results taken from PubChem BioAssay (NCI).
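Where inhibition never reached the appropriate level, the endpoint shown equals the highest concentration tested. Otherwise, values were interpolated linearly from a five-concentration, 48-hour dose response in 96-well plates. Abbreviation: GI50, concentration required for 50% inhibition of growth. TGI is the concentration that stops growth completely.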

tested on: SN12C renal; experiment: growth of human tumour cells (NCI), 48 h

SMILES | GI50 | TGI
O=C(c1cccc(O)c1O)c1cn(Cc2ccc(F)cc2)c2cccc(O)c12 | 6.37 µM | 21.7 µM
Nc1ncc(-c2cnn(CCO)c2)c2scc(-c3ccc(NC(=O)Nc4cccc(F)c4)cc3)c12 | 0.186 µM | 6.59 µM
COc1cc(C2=NN(C(C)=O)C(c3ccc(OC(C)=O)cc3OC(C)=O)O2)c(OC(C)=O)c2ccccc12 (centres undefined) | 0.864 µM | > 43.8 µM
COC(=O)Nc1nc2ccc(Oc3ccc(NC(=O)Nc4ccccc4)cc3)cc2[nH]1 | 0.452 µM | > 10.9 µM
O=C1c2c(Br)sc(Br)c2C(NC(=O)C(F)(F)F)C1O (centres undefined) | – | 34.1 µM
CCN(CC)CCCC(C)Nc1c(C)cnc2cc(Cl)c(C)cc12 (centres undefined) | 11.2 µM | 43.9 µM
CC(=O)OC1CC(O)C23COC(O)C1(C)C2CC(O)C1(C)C3C(=O)C(O)C2(C)C(c3ccoc3)CC3OC321 (centres undefined) | > 100 µM | > 100 µM
CCCCCCCC(CC(=O)NC(CO)C(=O)NC(CO)CC(C)C)OC(=O)CC(CCCCCCC)OC(=O)CC(CCCCCCC)OC1OC(C)C(O)C(OC2OC(C)C(O)C(OC(C)=O)C2O)C1O (centres undefined) | – | 19.9 µM
COc1ccc(C(C)c2cc3c(cc2OC)OCO3)cc1 (centres undefined) | – | 43.5 µM
CCc1[nH]c(=O)nc(N)c1-c1ccc(N2CCCCC2)c([N+](=O)[O-])c1 | – | > 100 µM
CCC#CC[C@H]1C/C=C2/C(=O)C=C[C@@H]2C/C=C\CCCC(=O)O1 | 0.954 µM | 2.78 µM
COc1cc[nH]c1/C=C1\C(=O)Nc2ccccc21 | 7.36 µM | > 25 µM
O=C(Nc1ccc(Cl)cc1)c1cc(-c2ccc(F)cc2)c2sc(=O)[nH]c2n1 | 1.99 µM | 7.93 µM
COc1cc(NC(=O)c2cc(O)c(CC=C(C)C)c(O)c2)cc2c1O[C@]1(C)CC[C@@H](O)C(C)(C)[C@H]1C2 | 8.83 µM | 36.6 µM
Cc1ccc(C(=NN=C(N)N)c2ccc(C)cc2)cc1 | 1.07 µM | 11.6 µM
Clc1nc(Cl)c2ncn(Cc3cccc(COc4cccc(OCc5cccc(Cn6cnc7c(Cl)nc(Cl)nc76)c5)c4)c3)c2n1 | > 100 µM | > 100 µM
CN(C)c1ccc(N)cc1 | 4.35 µM | 33.9 µM
CCS(=O)(=O)c1ccc(OC)c(Nc2ncc(-c3cccc(OC)c3)o2)c1 | 8.3 µM | > 25 µM
CC(C)c1ccc(C(=O)Nc2sc3c(c2C(N)=O)CCC(=O)C3)cc1 | 0.515 µM | 2.35 µM

tested on: SNB-19 CNS; experiment: growth of human tumour cells (NCI), 48 h

SMILES | GI50 | TGI
O=C(c1cccc(O)c1O)c1cn(Cc2ccc(F)cc2)c2cccc(O)c12 | 3.97 µM | 17 µM
Nc1ncc(-c2cnn(CCO)c2)c2scc(-c3ccc(NC(=O)Nc4cccc(F)c4)cc3)c12 | 1.04 µM | 9.16 µM
COc1cc(C2=NN(C(C)=O)C(c3ccc(OC(C)=O)cc3OC(C)=O)O2)c(OC(C)=O)c2ccccc12 (centres undefined) | 1.19 µM | > 75.3 µM
COC(=O)Nc1nc2ccc(Oc3ccc(NC(=O)Nc4ccccc4)cc3)cc2[nH]1 | 0.183 µM | > 17 µM
O=C1c2c(Br)sc(Br)c2C(NC(=O)C(F)(F)F)C1O (centres undefined) | – | 56.4 µM
CCN(CC)CCCC(C)Nc1c(C)cnc2cc(Cl)c(C)cc12 (centres undefined) | 17.7 µM | 50.6 µM
CC(=O)OC1CC(O)C23COC(O)C1(C)C2CC(O)C1(C)C3C(=O)C(O)C2(C)C(c3ccoc3)CC3OC321 (centres undefined) | > 100 µM | > 100 µM
CCCCCCCC(CC(=O)NC(CO)C(=O)NC(CO)CC(C)C)OC(=O)CC(CCCCCCC)OC(=O)CC(CCCCCCC)OC1OC(C)C(O)C(OC2OC(C)C(O)C(OC(C)=O)C2O)C1O (centres undefined) | – | 20.4 µM
COc1ccc(C(C)c2cc3c(cc2OC)OCO3)cc1 (centres undefined) | – | > 100 µM
CCc1[nH]c(=O)nc(N)c1-c1ccc(N2CCCCC2)c([N+](=O)[O-])c1 | – | > 100 µM
CCC#CC[C@H]1C/C=C2/C(=O)C=C[C@@H]2C/C=C\CCCC(=O)O1 | 1.48 µM | 7.02 µM
COc1cc[nH]c1/C=C1\C(=O)Nc2ccccc21 | > 25 µM | > 25 µM
O=C(Nc1ccc(Cl)cc1)c1cc(-c2ccc(F)cc2)c2sc(=O)[nH]c2n1 | 2.73 µM | 16.2 µM
COc1cc(NC(=O)c2cc(O)c(CC=C(C)C)c(O)c2)cc2c1O[C@]1(C)CC[C@@H](O)C(C)(C)[C@H]1C2 | 3.68 µM | 21 µM
Cc1ccc(C(=NN=C(N)N)c2ccc(C)cc2)cc1 | 2.23 µM | 18.4 µM
Clc1nc(Cl)c2ncn(Cc3cccc(COc4cccc(OCc5cccc(Cn6cnc7c(Cl)nc(Cl)nc76)c5)c4)c3)c2n1 | > 100 µM | > 100 µM
CN(C)c1ccc(N)cc1 | 4.35 µM | > 100 µM
CCS(=O)(=O)c1ccc(OC)c(Nc2ncc(-c3cccc(OC)c3)o2)c1 | 12 µM | > 25 µM
CC(C)c1ccc(C(=O)Nc2sc3c(c2C(N)=O)CCC(=O)C3)cc1 | 0.472 µM | 6.02 µM

tested on: TK-10 renal; experiment: growth of human tumour cells (NCI), 48 h

SMILES | GI50 | TGI
O=C(c1cccc(O)c1O)c1cn(Cc2ccc(F)cc2)c2cccc(O)c12 | 7.01 µM | 26.8 µM
Nc1ncc(-c2cnn(CCO)c2)c2scc(-c3ccc(NC(=O)Nc4cccc(F)c4)cc3)c12 | 0.394 µM | 3.43 µM
COc1cc(C2=NN(C(C)=O)C(c3ccc(OC(C)=O)cc3OC(C)=O)O2)c(OC(C)=O)c2ccccc12 (centres undefined) | 1.31 µM | 35.1 µM
COC(=O)Nc1nc2ccc(Oc3ccc(NC(=O)Nc4ccccc4)cc3)cc2[nH]1 | 0.787 µM | 9.74 µM
O=C1c2c(Br)sc(Br)c2C(NC(=O)C(F)(F)F)C1O (centres undefined) | – | > 100 µM
CCN(CC)CCCC(C)Nc1c(C)cnc2cc(Cl)c(C)cc12 (centres undefined) | 13.9 µM | 28.4 µM
CC(=O)OC1CC(O)C23COC(O)C1(C)C2CC(O)C1(C)C3C(=O)C(O)C2(C)C(c3ccoc3)CC3OC321 (centres undefined) | > 100 µM | > 100 µM
CCCCCCCC(CC(=O)NC(CO)C(=O)NC(CO)CC(C)C)OC(=O)CC(CCCCCCC)OC(=O)CC(CCCCCCC)OC1OC(C)C(O)C(OC2OC(C)C(O)C(OC(C)=O)C2O)C1O (centres undefined) | – | 29.2 µM
COc1ccc(C(C)c2cc3c(cc2OC)OCO3)cc1 (centres undefined) | – | > 100 µM
CCc1[nH]c(=O)nc(N)c1-c1ccc(N2CCCCC2)c([N+](=O)[O-])c1 | – | > 100 µM
